Assay results published in patent US20250171459A1, “2-METHYL-4',5'-DIHYDROSPIRO[PIPERIDINE-4,7'-THIENO[2,3-C]PYRAN] DERIVATIVES AS INHIBITORS OF APOL1 AND METHODS OF USING SAME” (Vertex Pharmaceuticals Incorporated, priority 2022, published 2025).

Target: T1, APOL1 (Homo sapiens, UniProt O14791)
T1 sequence (O14791 1-398 S342G/I384M): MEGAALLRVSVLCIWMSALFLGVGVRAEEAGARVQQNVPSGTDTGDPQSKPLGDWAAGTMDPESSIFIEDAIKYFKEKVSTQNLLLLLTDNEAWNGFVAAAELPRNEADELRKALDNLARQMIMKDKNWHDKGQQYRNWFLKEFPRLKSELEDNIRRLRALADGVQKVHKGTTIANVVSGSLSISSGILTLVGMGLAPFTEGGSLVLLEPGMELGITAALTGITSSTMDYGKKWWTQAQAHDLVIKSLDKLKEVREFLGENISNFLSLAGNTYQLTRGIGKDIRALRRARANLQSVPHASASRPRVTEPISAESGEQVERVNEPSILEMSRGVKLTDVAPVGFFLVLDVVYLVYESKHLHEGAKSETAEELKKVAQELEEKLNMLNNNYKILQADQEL
Assay: MultiTox-Fluor Multiplex Cytotoxicity Assay in tet-inducible APOL1 T-REx-HEK293 cells (cell rescue, ratio of dead to live cells)
Type: cell-based
Conditions: tet-inducible transgenic APOL1 T-REx-HEK293 cell lines, 50 ng/mL tet, 24 hours; read-out: IP50 (i.e., IC50 for cell proliferation)
Outline: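 T-REx-HEK293 cells with tet-inducible APOL1 were treated with compound (10 μM top, 10-point 3-fold dilution, duplicate) plus 50 ng/mL tetracycline for 24 h at 37° C, in DMEM with 2% tet-free FBS. MultiTox-Fluor protease signals gave a dead/live ratio, normalized to no tet (100% viability) and tet alone (0%).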

| SMILES | IC50 |
| --- | --- |
| CCc1cc2c(s1)CCO[C@]21CCN(Cc2cnn(C)c2)[C@H](C)C1 [Compound 270] | 100 to 500 nM |
| CCc1cc2c(s1)CCO[C@]21CCN(Cc2cnn(CCS(C)(=O)=O)c2)[C@@H](C)C1 [Compound 271] | < 100 nM |
| CCc1cc2c(s1)CCO[C@@]21CCN(Cc2cnn(CCS(C)(=O)=O)c2)[C@H](C)C1 [Compound 272] | 100 to 500 nM |
| CCc1cc2c(s1)CCO[C@]21CCN(Cc2cnn(CCS(C)(=O)=O)c2)[C@H](C)C1 [Compound 273] | 100 to 500 nM |
| CCc1cc2c(s1)CCO[C@@]21CCN(Cc2ccc(NS(C)(=O)=O)cc2)[C@@H](C)C1 [Compound 274] | < 100 nM |
| CCc1cc2c(s1)CCO[C@@]21CCN(CCC(F)(F)F)[C@@H](C)C1 [Compound 275] | 500 to 1000 nM |
| CCc1cc2c(s1)CCO[C@@]21CCN(CC(C)C)[C@@H](C)C1 [Compound 276] | 500 to 1000 nM |
| CCc1cc2c(s1)CCO[C@@]21CCN(C)[C@@H](C)C1 [Compound 277] | 500 to 1000 nM |
| CCc1cc2c(s1)CCO[C@@]21CCN(CCOC)[C@@H](C)C1 [Compound 278, (2′S,4R)-2-ethyl-1′-(2-methoxyethyl)-2′-methyl-spiro[6,7-dihydrothieno[3,2-c]pyran-4,4′-piperidine]] | 100 to 500 nM |
| CCc1cc2c(s1)CCO[C@@]21CCN(Cc2ccon2)[C@@H](C)C1 [Compound 279, (2′S,4R)-2-ethyl-1′-(isoxazol-3-ylmethyl)-2′-methyl-spiro[6,7-dihydrothieno[3,2-c]pyran-4,4′-piperidine]] | < 100 nM |
| CCc1cc2c(s1)CCO[C@@]21CCN(CC(O)CC#N)[C@@H](C)C1 (stereo partly shown) [Compound 280] | 100 to 500 nM |
| CCc1cc2c(s1)CCO[C@@]21CCN(CC(O)CO)[C@@H](C)C1 (stereo partly shown) [Compound 281] | 100 to 500 nM |
| CCc1cc2c(s1)CCO[C@@]21CCN(CC(O)CO)[C@@H](C)C1 (stereo partly shown) [Compound 282] | 500 to 1000 nM |
| CCc1cc2c(s1)CCO[C@@]21CCN(CC(=O)OC)[C@@H](C)C1 [Compound 283] | 500 to 1000 nM |
| CCc1cc2c(s1)CCO[C@@]21CCN(Cc2ncco2)[C@@H](C)C1 [Compound 284] | 500 to 1000 nM |
| CCc1cc2c(s1)CCO[C@@]21CCN(CCn2cccn2)[C@@H](C)C1 [Compound 286] | 500 to 1000 nM |
| CCc1cc2c(s1)CCO[C@@]21CCN(Cc2cc(C)on2)[C@@H](C)C1 [Compound 287] | < 100 nM |
| CCc1cc2c(s1)CCO[C@@]21CCN(Cc2c[nH]c(C)n2)[C@@H](C)C1 [Compound 288] | < 100 nM |
| CCc1cc2c(s1)CCO[C@@]21CCN(CC)[C@@H](C)C1 [Compound 289] | 100 to 500 nM |
| CCc1cc2c(s1)CCO[C@@]21CCN(CC(=O)C(C)(C)C)[C@@H](C)C1 [Compound 290] | 500 to 1000 nM |

| SMILES | IC50 |
| --- | --- |
| CCc1cc2c(s1)CCO[C@@]21CCN(Cc2nc3ccccc3[nH]2)[C@@H](C)C1 [Compound 291] | 100 to 500 nM |
| CCc1cc2c(s1)CCO[C@@]21CCN(CC#N)[C@@H](C)C1 [Compound 292] | 100 to 500 nM |
| CCc1cc2c(s1)CCO[C@@]21CCN(Cc2ncon2)[C@@H](C)C1 [Compound 293] | 500 to 1000 nM |
| CCc1cc2c(s1)CCO[C@@]21CCN(CC(F)F)[C@@H](C)C1 [Compound 294] | 500 to 1000 nM |
| CCc1cc2c(s1)CCO[C@@]21CCN([C@@H]2CC[C@H](NC(=O)OC(C)(C)C)C2)[C@@H](C)C1 [Compound 295] | 100 to 500 nM |
| CCc1cc2c(s1)CCO[C@@]21CCN([C@H]2C[C@H](NC(=O)OC(C)(C)C)C2)[C@@H](C)C1 [Compound 297] | 500 to 1000 nM |
| CCc1cc2c(s1)CCO[C@@]21CCN([C@H]2C[C@@H](NC(=O)OC(C)(C)C)C2)[C@@H](C)C1 [Compound 298] | 500 to 1000 nM |
| CCc1cc2c(s1)CCO[C@@]21CCN(C[C@H]2C[C@@H](N)C2)[C@@H](C)C1 [Compound 299, 3-[[(2′S,4R)-2-ethyl-2′-methyl-spiro[6,7-dihydrothieno[3,2-c]pyran-4,4′-piperidine]-1′-yl]methyl]cyclobutanamine] | 100 to 500 nM |
| CCc1cc2c(s1)CCO[C@@]21CCN(C[C@H]2C[C@@H](NC(=O)C3CC(F)(F)C3)C2)[C@@H](C)C1 [Compound 300, N-[3-[[(2′S,4R)-2-ethyl-2′-methyl-spiro[6,7-dihydrothieno[3,2-c]pyran-4,4′-piperidine]-1′-yl]methyl]cyclobutyl]-3,3-difluoro-cyclobutanecarboxamide] | < 100 nM |
| CCc1cc2c(s1)CCO[C@@]21CCN(C[C@H]2C[C@@H](NC(=O)COCC(F)(F)F)C2)[C@@H](C)C1 [Compound 301, N-[3-[[(2′S,4R)-2-ethyl-2′-methyl-spiro[6,7-dihydrothieno[3,2-c]pyran-4,4′-piperidine]-1′-yl]methyl]cyclobutyl]-2-(2,2,2-trifluoroethoxy)acetamide] | 100 to 500 nM |
| CCc1cc2c(s1)CCO[C@@]21CCN(C[C@H]2C[C@@H](NC(=O)OC)C2)[C@@H](C)C1 [Compound 302, methyl N-[3-[[(2′S,4R)-2-ethyl-2′-methyl-spiro[6,7-dihydrothieno[3,2-c]pyran-4,4′-piperidine]-1′-yl]methyl]cyclobutyl]carbamate] | < 100 nM |
| CCc1cc2c(s1)CCO[C@@]21CCN(C[C@H]2C[C@@H](NC(=O)CC3(O)CCCCC3)C2)[C@@H](C)C1 [Compound 303] | < 100 nM |
| CCc1cc2c(s1)CCO[C@@]21CCN(C[C@H]2C[C@@H](NC(=O)c3cc(C)no3)C2)[C@@H](C)C1 [Compound 304] | < 100 nM |
| CCc1cc2c(s1)CCO[C@@]21CCN(C[C@H]2C[C@@H](NC(=O)[C@H]3C[C@@H]3C(F)F)C2)[C@@H](C)C1 [Compound 305] | < 100 nM |
| CCCCC(O)C(=O)N[C@H]1C[C@@H](CN2CC[C@]3(C[C@@H]2C)OCCc2sc(CC)cc23)C1 (stereo partly shown) [Compound 306] | < 100 nM |
| CCc1cc2c(s1)CCO[C@@]21CCN(C[C@H]2C[C@@H](NC(=O)c3ccc4cn[nH]c4c3)C2)[C@@H](C)C1 [Compound 307] | < 100 nM |
| CCc1cc2c(s1)CCO[C@@]21CCN(C[C@H]2C[C@@H](NC(=O)c3oncc3C)C2)[C@@H](C)C1 [Compound 308] | < 100 nM |
| CCc1cc2c(s1)CCO[C@@]21CCN(C[C@H]2C[C@@H](NC(=O)CC3CC3(F)F)C2)[C@@H](C)C1 (stereo partly shown) [Compound 309] | < 100 nM |
| CCc1cc2c(s1)CCO[C@@]21CCN(C[C@H]2C[C@@H](NC(=O)c3cnn(CC(F)(F)F)c3)C2)[C@@H](C)C1 [Compound 310] | 100 to 500 nM |
| CCc1cc2c(s1)CCO[C@@]21CCN(C[C@H]2C[C@@H](NC(=O)c3cccc4c3OCCC4)C2)[C@@H](C)C1 [Compound 311] | 100 to 500 nM |

| SMILES | IC50 |
| --- | --- |
| CCc1cc2c(s1)CCO[C@@]21CCN(C[C@H]2C[C@@H](NC(=O)C3CCCC(C)(C)C3)C2)[C@@H](C)C1 (stereo partly shown) [Compound 312] | < 100 nM |
| CCc1cc2c(s1)CCO[C@@]21CCN(C[C@H]2C[C@@H](NC(=O)Cc3cc(C)cc(F)c3)C2)[C@@H](C)C1 [Compound 313] | < 100 nM |
| CCc1cc2c(s1)CCO[C@@]21CCN(C[C@H]2C[C@@H](NC(=O)CC3CCC(F)(F)CC3)C2)[C@@H](C)C1 [Compound 314] | < 100 nM |
| CCc1cc2c(s1)CCO[C@@]21CCN(C[C@H]2C[C@@H](NC(=O)C3CCOC(C)(C)C3)C2)[C@@H](C)C1 (stereo partly shown) [Compound 315] | < 100 nM |
| CCc1cc2c(s1)CCO[C@@]21CCN(C[C@H]2C[C@@H](NC(=O)c3cnc4c(c3)CCC4)C2)[C@@H](C)C1 [Compound 316] | < 100 nM |
| CCc1cc2c(s1)CCO[C@@]21CCN(C[C@H]2C[C@@H](NC(=O)c3ccn(CC(C)C)n3)C2)[C@@H](C)C1 [Compound 317] | 100 to 500 nM |
| CCc1cc2c(s1)CCO[C@@]21CCN(C[C@H]2C[C@@H](NC(=O)C3CC(=O)C3(C)C)C2)[C@@H](C)C1 (stereo partly shown) [Compound 318] | < 100 nM |
| CCc1cc2c(s1)CCO[C@@]21CCN(C[C@H]2C[C@@H](NC(=O)C(O)C(C)C)C2)[C@@H](C)C1 (stereo partly shown) [Compound 319] | < 100 nM |
| CCc1cc2c(s1)CCO[C@@]21CCN(C[C@H]2C[C@@H](NC(=O)c3cnc(C)s3)C2)[C@@H](C)C1 [Compound 320] | < 100 nM |
| CCc1cc2c(s1)CCO[C@@]21CCN(C[C@H]2C[C@@H](NC(=O)c3cn(C4CCOCC4)nn3)C2)[C@@H](C)C1 [Compound 321] | 100 to 500 nM |
| CCc1cc2c(s1)CCO[C@@]21CCN(C[C@H]2C[C@@H](NC(=O)CCN3CCCCC3)C2)[C@@H](C)C1 [Compound 322] | 100 to 500 nM |
| CCc1cc2c(s1)CCO[C@@]21CCN(C[C@H]2C[C@@H](NC(=O)C3CC3c3ccc(F)cc3)C2)[C@@H](C)C1 (stereo partly shown) [Compound 323] | < 100 nM |
| CCc1cc2c(s1)CCO[C@@]21CCN(C[C@H]2C[C@@H](NC(=O)c3ccnc(C)n3)C2)[C@@H](C)C1 [Compound 324] | < 100 nM |
| CCc1cc2c(s1)CCO[C@@]21CCN(C[C@H]2C[C@@H](NC(=O)C3CCC3(F)F)C2)[C@@H](C)C1 (stereo partly shown) [Compound 325] | < 100 nM |
| CCc1cc2c(s1)CCO[C@@]21CCN(C[C@H]2C[C@@H](NC(=O)c3cc(C)[nH]n3)C2)[C@@H](C)C1 [Compound 326] | < 100 nM |
| CCc1cc2c(s1)CCO[C@@]21CCN(C[C@H]2C[C@@H](NC(=O)C3(c4ccc(F)cn4)CC3)C2)[C@@H](C)C1 [Compound 327] | 100 to 500 nM |
| CCc1cc2c(s1)CCO[C@@]21CCN(C[C@H]2C[C@@H](NC(=O)c3ccc(C)nn3)C2)[C@@H](C)C1 [Compound 328] | 100 to 500 nM |
| CCc1cc2c(s1)CCO[C@@]21CCN(C[C@H]2C[C@@H](NC(=O)c3cnc(C)nc3)C2)[C@@H](C)C1 [Compound 329] | 100 to 500 nM |
